Measurements reported in patent US20240382482A1, “PLASMA KALLIKREIN INHIBITORS” (TAKEDA PHARMACEUTICAL COMPANY LIMITED, priority 2021, published 2024).
Counter-ions that a name gives are not always drawn.

Target: human activated kallikrein enzyme (Homo sapiens, UniProt P03952)
Experiment: Inhibition of human activated kallikrein enzyme, fluorogenic peptide substrate assay (500 pM enzyme format)
Type: biochemical
Settings: 500 pM activated kallikrein, 300 μM PFR-AMC substrate, 30 min preincubation, 10 min reaction, room temperature; read-out: Primary Dose Response Assay: Average EC50
Experimental: Compounds were evaluated for inhibition of the human activated kallikrein enzyme in two formats of an assay employing a fluorogenic peptide substrate. In one assay format, the concentrations of reagents were as follows: 20 mM Tris pH 7.5, 1 mM EDTA, 150 mM sodium chloride, 0.1% PEG-400, 0.1% Triton X-100, 500 pM activated kallikrein enzyme, 300 μM Pro-Phe-Arg-7-amido-4-methylcoumarin (PFR-AMC) substrate. Prior to reaction initiation with substrate, enzyme and inhibitors were preincubated for 30 min at room temperature. After initiation with substrate, reactions were incubated for 10 min at room temperature and fluorescence emission at 460 nm from 380 nm excitation measured with a microplate reader. In another assay format, the concentrations of reagents were as follows: 20 mM Tris pH 7.5, 1 mM EDTA, 150 mM sodium chloride, 0.1% PEG-400, 0.1% Triton X-100, 5 pM activated kallikrein enzyme, 300 uM PFR-AMC substrate. Prior to reaction initiation with substrate, enzyme and inhibitors were preincubated for 30 min at room temperature. After initiation with substrate, reactions were incubated for 18 hr at room temperature and fluorescence emission at 460 nm from 380 nm excitation measured with a microplate reader.
Table 1 provides the results of the assay in the format with 500 pM activated kallikrein assay. For the compounds listed in Table 1, the EC50 values are reported according to the following ranges: A≤5.0 nM; 5.0 nM<B≤50 nM; 50 nM<C≤500 nM; 500 nM<D≤9000 nM; 9000 nM<E.

human activated kallikrein enzyme, sequence (P03952 391-638 limits assumed): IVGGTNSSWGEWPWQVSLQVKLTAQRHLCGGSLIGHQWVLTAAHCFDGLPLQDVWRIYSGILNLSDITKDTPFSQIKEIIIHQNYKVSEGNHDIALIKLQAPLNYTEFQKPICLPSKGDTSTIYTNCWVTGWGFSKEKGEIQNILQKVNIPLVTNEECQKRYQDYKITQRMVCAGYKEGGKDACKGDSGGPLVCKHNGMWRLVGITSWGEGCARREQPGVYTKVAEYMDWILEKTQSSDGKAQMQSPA
human activated kallikrein enzyme, sequence (P03952 20-390 partner limits assumed): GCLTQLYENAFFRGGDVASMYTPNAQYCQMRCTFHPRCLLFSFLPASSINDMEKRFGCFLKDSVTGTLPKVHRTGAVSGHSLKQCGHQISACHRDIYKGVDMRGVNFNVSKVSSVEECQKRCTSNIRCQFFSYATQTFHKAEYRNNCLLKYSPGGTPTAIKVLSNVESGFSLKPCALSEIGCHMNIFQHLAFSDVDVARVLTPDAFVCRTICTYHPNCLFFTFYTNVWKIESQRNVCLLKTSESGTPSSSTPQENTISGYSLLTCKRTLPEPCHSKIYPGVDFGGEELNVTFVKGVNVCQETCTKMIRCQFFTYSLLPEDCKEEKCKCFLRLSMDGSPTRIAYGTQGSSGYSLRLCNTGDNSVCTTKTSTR

SMILES	EC50
O=C(Cc1ncn2ccc(Cl)cc12)Nc1cc(NCc2cn3cc(C4CC4)cc(CO)c3n2)ncn1 [Example 44, 2-(7-chloroimidazo[1,5-a]pyridin-1-yl)-N-(6-(((6-cyclopropyl-8-(hydroxymethyl)imidazo[1,2-a]pyridin-2-yl)methyl)amino)pyrimidin-4-yl)acetamide]	≤ 5 nM
CCOC(=O)c1nc(NCc2c(C)cc(C(=N)NO)cc2C)cc(OCc2cn3cc(C4CC4)ccc3n2)n1 [Example 81, ethyl 4-((6-cyclopropylimidazo[1,2-a]pyridin-2-yl)methoxy)-6-((4-(N-hydroxycarbamimidoyl)-2,6-dimethylbenzyl)amino)pyrimidine-2-carboxylate]	50 to 500 nM
Cc1cc(C(=N)N)cc(C)c1CNc1cc(OCc2cn3cc(C4CC4)ccc3n2)nc(C(=O)O)n1 [Example 85, 4-((4-carbamimidoyl-2,6-dimethylbenzyl)amino)-6-((6-cyclopropylimidazo[1,2-a]pyridin-2-yl)methoxy)pyrimidine-2-carboxylic acid]	≤ 5 nM
O=C(O)CCc1cc(C2CC2)cn2cc(CNc3cc(NC(=O)Cc4ncn5ccc(Cl)cc45)ncn3)nc12 [Example 39, 3-(2-(((6-(2-(7-chloroimidazo[1,5-a]pyridin-1-yl)acetamido)pyrimidin-4-yl)amino)methyl)-6-cyclopropylimidazo[1,2-a]pyridin-8-yl)propanoic acid]	≤ 5 nM
NC(=O)Cc1cc2c(Cl)cn(-c3cc(NCc4cn5cc(C6CC6)ccc5n4)ccn3)c2cc1F [Example 127, 2-(3-chloro-1-(4-(((6-cyclopropylimidazo[1,2-a]pyridin-2-yl)methyl)amino)pyridin-2-yl)-6-fluoro-1H-indol-5-yl)acetamide]	500 to 9000 nM
Clc1cccc([C@H]2C[C@@H]2CNc2cc(NCc3cn4cc(C5CC5)ccc4n3)ncn2)c1 [Example 138, N^4-(((1S,2S)-2-(3-chlorophenyl)cyclopropyl)methyl)-N^6-((6-cyclopropylimidazo[1,2-a]pyridin-2-yl)methyl)pyrimidine-4,6-diamine]	500 to 9000 nM
Cc1cc(C(=N)NO)cc(C)c1CNc1cc(OCc2cn3cc(C4CC4)ccc3n2)nc(C(=O)O)n1 [Example 84, 4-((6-cyclopropylimidazo[1,2-a]pyridin-2-yl)methoxy)-6-((4-(N-hydroxycarbamimidoyl)-2,6-dimethylbenzyl)amino)pyrimidine-2-carboxylic acid]	5 to 50 nM
O=C(Cc1ncn2ccc(Cl)cc12)Nc1cnnc(OCc2cn3cc(C4CC4)ccc3n2)c1 [Example 34, 2-(7-chloroimidazo[1,5-a]pyridin-1-yl)-N-(6-((6-cyclopropylimidazo[1,2-a]pyridin-2-yl)methoxy)pyridazin-4-yl)acetamide]	50 to 500 nM
O=C(NCc1ncn2ccc(Cl)cc12)c1cnnc(NCc2cn3cc(C4CC4)ccc3n2)c1 [Example 65, N-((7-chloroimidazo[1,5-a]pyridin-1-yl)methyl)-6-(((6-cyclopropylimidazo[1,2-a]pyridin-2-yl)methyl)amino)pyridazine-4-carboxamide]	5 to 50 nM
COc1ccc(N)c(CC(=O)Nc2cc(NCc3cn4cc(C5CC5)ccc4n3)ncn2)c1F [Example 36, 2-(6-amino-2-fluoro-3-methoxyphenyl)-N-(6-(((6-cyclopropylimidazo[1,2-a]pyridin-2-yl)methyl)amino)pyrimidin-4-yl)acetamide]	500 to 9000 nM
O=C(Cn1c(=O)oc2ccc(Cl)cc21)Nc1cc(NCc2cn3cc(C4CC4)ccc3n2)ccn1 [Example 124, 2-(5-chloro-2-oxobenzo[d]oxazol-3 (2H)-yl)-N-(4-(((6-cyclopropylimidazo[1,2-a]pyridin-2-yl)methyl)amino)pyridin-2-yl)acetamide]	500 to 9000 nM
O=C(Cc1cc2c(Cl)c[nH]c2cc1F)Nc1cc(NCc2cn3cc(C4CC4)ccc3n2)ccn1 [Example 132, 2-(3-chloro-6-fluoro-1H-indol-5-yl)-N-(4-(((6-cyclopropylimidazo[1,2-a]pyridin-2-yl)methyl)amino)pyridin-2-yl)acetamide]	5 to 50 nM
Cc1cc(C(=N)N)cc(C)c1CNc1cc(OCc2cn3cc(C4CC4)ccc3n2)ncn1 [Example 72, 4-(((6-((6-cyclopropylimidazo[1,2-a]pyridin-2-yl)methoxy)pyrimidin-4-yl)amino)methyl)-3,5-dimethylbenzimidamide formic acid salt]	≤ 5 nM
CC(C(=O)Nc1cc(NCc2cn3cc(C4CC4)ccc3n2)ncn1)c1ncn2ccc(Cl)cc12 (stereo not shown) [Example 4, 2-(7-chloroimidazo[1,5-a]pyridin-1-yl)-N-(6-(((6-cyclopropylimidazo[1,2-a]pyridin-2-yl)methyl)amino)pyrimidin-4-yl)propanamide]	5 to 50 nM
COc1ccc(=O)n(CC(=O)Nc2cc(NCc3cn4cc(C5CC5)ccc4n3)ncn2)c1 [Example 121, N-(6-(((6-cyclopropylimidazo[1,2-a]pyridin-2-yl)methyl)amino)pyrimidin-4-yl)-2-(5-methoxy-2-oxopyridin-1 (2H)-yl)acetamide]	> 9000 nM
Cc1cc(N)nc(C)c1CNc1cc(C(O)c2cn3cc(C4CC4)ccc3n2)ncn1 (stereo not shown) [Example 64, (6-(((6-amino-2,4-dimethylpyridin-3-yl)methyl)amino)pyrimidin-4-yl)(6-cyclopropylimidazo[1,2-a]pyridin-2-yl)methanol bisformic acid salt]	5 to 50 nM
CC(=O)OCONC(=N)c1cc(C)c(CNc2cc(OCc3cn4cc(C5CC5)ccc4n3)ncn2)c(C)c1 [Example 90, ((4-(((6-((6-cyclopropylimidazo[1,2-a]pyridin-2-yl)methoxy)pyrimidin-4-yl)amino)methyl)-3,5-dimethylbenzimidamido)oxy)methyl acetate]	500 to 9000 nM
CCCCCCOC(=O)NC(=N)c1cc(C)c(CNc2cc(OCc3cn4cc(C5CC5)ccc4n3)nc(C(=O)OCC)n2)c(C)c1 [Example 87, ethyl 4-((6-cyclopropylimidazo[1,2-a]pyridin-2-yl)methoxy)-6-(4-(N-(hexyloxycarbonyl)carbamimidoyl)-2,6-dimethylbenzylamino)pyrimidine-2-carboxylate]	50 to 500 nM
COC(C(=O)Nc1cc(NCc2cn3cc(C4CC4)ccc3n2)ncn1)c1ncn2ccc(Cl)cc12 (stereo not shown) [Example 6, 2-(7-chloroimidazo[1,5-a]pyridin-1-yl)-N-(6-(((6-cyclopropylimidazo[1,2-a]pyridin-2-yl)methyl)amino)pyrimidin-4-yl)-2-methoxyacetamide]	50 to 500 nM
O=C(Nc1cc(NCc2cn3cc(C4CC4)ccc3n2)ccn1)c1ccc2ccc(Cl)cc2c1 [Example 118, 7-chloro-N-(4-(((6-cyclopropylimidazo[1,2-a]pyridin-2-yl)methyl)amino)pyridin-2-yl)-2-naphthamide]	50 to 500 nM
O=C(Cc1cnc2[nH]cc(Cl)c2c1)Nc1cc(NCc2cn3cc(C4CC4)ccc3n2)ccn1 [Example 130, 2-(3-chloro-1H-pyrrolo[2,3-b]pyridin-5-yl)-N-(4-(((6-cyclopropylimidazo[1,2-a]pyridin-2-yl)methyl)amino)pyridin-2-yl)acetamide]	≤ 5 nM
O=C(Cc1ncn2ccc(Cl)cc12)Nc1cc(NCc2cn3c(F)c(C4CC4)ccc3n2)ncn1 [Example 46, 2-(7-chloroimidazo[1,5-a]pyridin-1-yl)-N-(6-(((6-cyclopropyl-5-fluoro-imidazo[1,2-a]pyridin-2-yl)methyl)amino)pyrimidin-4-yl)acetamide]	≤ 5 nM
O[C@H]1C[C@H](c2cn3cc(C4CC4)ccc3n2)N(c2cc(NCc3cc4c(Cl)c[nH]c4cc3F)ncn2)C1 [Example 139, (3S,5R)-1-(6-(((3-chloro-6-fluoro-1H-indol-5-yl)methyl)amino)pyrimidin-4-yl)-5-(6-cyclopropylimidazo[1,2-a]pyridin-2-yl)pyrrolidin-3-ol]	50 to 500 nM
N#C/N=C(\NCc1cccc(Cl)c1)Nc1cc(NCc2cn3cc(C4CC4)ccc3n2)ccn1 [Example 128, (E)-1-(3-chlorobenzyl)-2-cyano-3-(4-(((6-cyclopropylimidazo[1,2-a]pyridin-2-yl)methyl)amino)pyridin-2-yl)guanidine]	500 to 9000 nM
CN(Cc1cn2cc(C3CC3)cc(N3CCCC3=O)c2n1)c1cc(NC(=O)Cc2ncn3ccc(Cl)cc23)ncn1 [Example 18]	≤ 5 nM
O=c1c(NCc2cn3cc(C4CC4)ccc3n2)c(NCc2ncn3ccc(Cl)cc23)c1=O [Example 68, 3-(((7-chloroimidazo[1,5-a]pyridin-1-yl)methyl)amino)-4-(((6-cyclopropylimidazo[1,2-a]pyridin-2-yl)methyl)amino)cyclobut-3-ene-1,2-dione]	5 to 50 nM
O=C(Cc1ncn2ccc(Cl)cc12)Nc1cc(OCc2cn3cc(C4CC4)ccc3n2)cnn1 [Example 32, 2-(7-chloroimidazo[1,5-a]pyridin-1-yl)-N-(5-((6-cyclopropylimidazo[1,2-a]pyridin-2-yl)methoxy)pyridazin-3-yl)acetamide]	≤ 5 nM
O=C(Cc1ncn2ccc(Cl)cc12)Nc1cc(NCc2cn3cc(C4CC4)ccc3n2)nc(C(=O)O)n1 [Example 21, 4-(2-(7-chloroimidazo[1,5-a]pyridin-1-yl)acetamido)-6-(((6-cyclopropylimidazo[1,2-a]pyridin-2-yl)methyl)amino)pyrimidine-2-carboxylic acid]	≤ 5 nM
